The source of these data is publication PMC6687188, “Novel lactate dehydrogenase inhibitors with in vivo efficacy against Cryptosporidium parvum” (PLoS Pathogens, 2019).

Like-named read-outs stand apart in the source and are kept apart here.

For data set [1], the target named is T1, recombinant CpLDH protein (Cryptosporidium parvum, UniProt Q9GT92, F198L/K295E/R251K). To be noted: cited from earlier work.
For data set [2], the target named is T1, recombinant CpLDH protein. As to conditions: for Km: pyruvate/NADH: reduction reaction pH 7.5, lactate/NAD+: oxidation reaction pH 9.2, 25°C; for Kcat / Vmax: pyruvate/NADH: reduction reaction, lactate/NAD+: oxidation reaction. As to the method: The coding sequence of CpLDH was cloned from cDNA prepared from the AUCP-1 isolate of C. parvum, and the His-tagged CpLDH recombinant protein expressed in Escherichia coli, and purified in native form essentially as previously described. Briefly, cDNA was prepared from total RNA extracted from the AUCP-1 isolate of C. parvum, and the coding sequence of CpLDH (Genebank accession number AF274310.1) was PCR-amplified from the cDNA using the primer pair 5’-[…]-3’ (Forward, with the XhoI restriction site italicized and start codon in bold) and 5’-[…]-3’ (Reverse, with the BamHI site italicized and stop codon in bold). The PCR amplicon was cloned at the XhoI/BamHI site of the pET15b expression vector in-frame with the hexahistidine (His-tag) at the N-terminal and sequenced to confirm identity. The recombinant expression vector was transformed into protein expression E. coli BL21-CodonPlus-DE3-RIL (Stratagene). Transformed E. coli was cultured at 37°C in Luria broth medium (supplemented with 100 μg/ml ampicillin and 34 μg/ml chloramphenicol) to an A600 of 0.8 followed by addition of 1 mM isopropyl-β-D-thiogalactopyranoside to induce protein expression. The expression E. coli was harvested and lysed under native conditions by sonicating in lysis buffer (50 mM NaH2PO4, 300 mM NaCl, 10 mM Imidazole, pH 8.0) containing a 1x EDTA-free protease inhibitor cocktail, 600 units benzonase and 30 kU lysozyme (EMD Millipore). The lysate was clarified by centrifugation and the His-tagged recombinant protein purified under native conditions by nickel-affinity chromatography according to the manufacturer's instructions (Novagen). The wash buffer used contained 50 mM NaH2PO4, 300 mM NaCl and 20 mM Imidazole, pH 8.0, while the elution buffer was composed of 50 mM NaH2PO4, 300 mM NaCl, 250 mM Imidazole, pH 8.0. The eluate was dialyzed using a buffer containing 5 mM Hepes–KOH (pH 7.8) and 0.5 mM DTT. The purity of the recombinant protein was determined by SDS/PAGE, and the concentration measured using a Qubit 3.0 fluorometer (Life technologies). […] On the other hand, the catalytic activity of CpLDH recombinant protein for the oxidation of lactate to pyruvate was determined by measuring the change in optical density of a 100 μl reaction mixture containing 100 mM lactate, 1 mM NAD^+, 100 mM Tris, pH 9.2, with varying concentrations of CpLDH recombinant protein at 25°C. […] In all assays, reaction mixtures without recombinant CpLDH protein were included as negative controls. All assays were performed in triplicate and repeated at least thrice. The change in optical density was measured every 15 seconds for a total of 2 minutes using a Spectra Max 384 Plus plate reader (Molecular Devices) at a wave length of 340 nm.

Data set [3] addresses T1, recombinant CpLDH protein. As to conditions: value in parentheses; ref Zhang et al., 2015 [11]; cited from earlier work.
Data set [4] in a line: Compound cytotoxicity assay (WST-1 cell proliferation reagent). To be noted: human. On the procedure: A colorimetric assay using the cell proliferation reagent WST-1 (Roche, USA) for the quantification of cell viability was performed. […] When the cells were confluent, the old medium was replaced with fresh medium with or without varying concentrations of chemical compound. After 24 h of culture, 10 μl of the cell proliferation reagent WST-1, (for quantification of cell viability) was added to each well, mixed and the plates incubated for 1 h at 37 C with 5% CO2 in the dark. […] Three independent assays were performed and the dose–response curves of the means of triplicate assays were generated using GraphPad PRISM software to derive the half maximal inhibitory concentration (IC50) of compounds in HCT-8 cells.

Data set [5] relates to Cryptosporidium parvum. The data set is described as follows: In vitro anti-Cryptosporidium assay in HCT-8 cells (immunofluorescence). It is filed as cell-based. To be noted: Cryptosporidium parvum, HCT-8, positive control, time of addition not specified, read-out: IC50, inhibition of C. parvum growth. On the procedure: HCT-8 cells were cultured in supplemented RPMI-1640 medium in 96-well plates. When the cells were confluent, old medium was replaced with fresh medium. To one set of wells, varying concentrations of recombinant CpLDH inhibitors (reconstituted in DMSO and diluted in RPMI medium) were added, while another set was left without inhibitors. Paromomycin was used as a positive control drug reconstituted in distilled sterile water. Then, 4 x 10^4 freshly excysted sporozoites were added to each well and incubated at 37°C with 5% CO2. After 2 h incubation, varying concentrations of CpLDH inhibitors were added to the set of infected cells that were not treated initially. Control infected cells without inhibitors, but with added DMSO volumes equivalent to those used in the wells with inhibitors, were included. The cells were maintained in culture for a total of either 48 h or 72 h and processed for immunofluorescence assay as previously described. Briefly, medium was decanted and the cells fixed with methanol-acetic acid (9:1) for 2 minute at room temperature. The cells were rehydrated and permeabilized by two successive washes with buffer (0.1% Triton X-100, 0.35 M NaCl, 0.13 M Tris-base, pH 7.6) and blocked with 5% normal goat serum, followed by staining with antibody to C. parvum (SporoGlo; Waterborn, Inc.) overnight at 4°C. The stained cells were washed twice with PBS, followed by water, and then imaged with an inverted fluorescence microscope. Fluorescence quantification was done using ImageJ version 1.37v software (NIH).

Data set [6] deals with Cryptosporidium parvum. The data set can be described thus: In vivo anti-Cryptosporidium efficacy: real-time PCR of C. parvum DNA in feces of infected Gamma interferon knockout mice. As to conditions: day 7 post-infection; NSC158011 400 mg/kg, paromomycin 100 mg/kg. As to the method: Gamma interferon knockout mice (B6.129S7-Ifng), 8 weeks of age, were purchased from Charles River, USA. The care and use of the mice was done following the guidelines of protocol number 17024 approved by the University of Illinois at Urbana-Champaign, USA. The animals were allowed to acclimatize for 1 week before experiments commenced. Stock solutions of recombinant CpLDH inhibitors reconstituted in DMSO were diluted in sterile distilled water to reduce the final amount of DMSO in the solution to less than 1% (v/v) before administering them to mice. […] An equivalent volume of PBS containing a cocktail of penicillin (100 units/ml), streptomycin (100 μg/ml), chloramphenicol (34 μg/ml) and amphotericin (0.25 μg/ml) was added to the fecal samples and stored at 4°C until use for quantification of C. parvum genomic DNA load. […]
Genomic DNA was extracted from individual fecal samples collected from mice at different days as described above. […] Quantification of the amount of C. parvum 18s rRNA gene (GenBank accession number AF164102) was performed essentially as described previously. […] The PCR product was fractionated on agarose gel, extracted using the QIAquick Gel extraction kit (Qiagen, USA), and the concentration measured by Nanodrop Spectrophotometer (Fisher, USA). Ten-fold serial dilutions of the extracted DNA fragment were made and used as quantification standards for real-time PCR. […]

In data set [7] the test system is Cryptosporidium parvum. The data set is described as follows: Histopathology of distal small intestine of infected mice (denuded villi). The class given is in vivo. As to conditions: 9 days post-infection. On the procedure:
Gamma interferon knockout mice (B6.129S7-Ifng), 8 weeks of age, were purchased from Charles River, USA. The care and use of the mice was done following the guidelines of protocol number 17024 approved by the University of Illinois at Urbana-Champaign, USA. The animals were allowed to acclimatize for 1 week before experiments commenced. Stock solutions of recombinant CpLDH inhibitors reconstituted in DMSO were diluted in sterile distilled water to reduce the final amount of DMSO in the solution to less than 1% (v/v) before administering them to mice. Prior to testing the anti-Cryptosporidium effect of the inhibitors in mice, the tolerability of each inhibitor was tested by oral gavage using varying dosages (100–2000 mg/kg body weight) of each inhibitor in groups of mice (three mice for each dose) daily for 7 days. Mice were observed daily for signs of toxicity including changes from normal physical activity, respiration, body temperature, feeding, posture, fur condition or occurrence of death. […] Mice were allocated to groups as follows: “Infected plus inhibitor treatment”; “Infected minus inhibitor treatment”; “Uninfected minus inhibitor treatment” and “Infected plus paromomycin treatment”. Each group contained at least three mice. Each mouse in the infection groups received 5,000 C. parvum oocysts (resuspended in 50 μl of PBS) by oral gavage. Mice were housed individually in cages lined with sterile gauze as bedding. One day post-infection (PI), daily oral gavage administration of recombinant CpLDH inhibitor or paromomycin commenced and continued for a total of 7 days. Untreated mice received an equivalent volume of sterile distilled water (containing DMSO equivalent to the amount administered in the inhibitor-treated group) by oral gavage. […] An equivalent volume of PBS containing a cocktail of penicillin (100 units/ml), streptomycin (100 μg/ml), chloramphenicol (34 μg/ml) and amphotericin (0.25 μg/ml) was added to the fecal samples and stored at 4°C until use for quantification of C. parvum genomic DNA load. […]

Data set [8] has as its system HCT-8 cells. Also on record: method as in PMID 10882689, PMID 18591280. As to conditions: concentrations above 1000 μM; cited from earlier work.
Data set [9] relates to Cryptosporidium parvum. Also noted: method as in PMID 18591280. As to conditions: read-out: IC50 for inhibition of C. parvum growth in HCT-8 cells; cited from earlier work.

For `CCCc1c(O)c(O)c(C(=O)O)c2cc(Cc3ccccc3)c(C)cc12` [FX11], the “enzymatic activity of CpLDH (in words)” value in data set [1] is on record as “able to inhibit”.
Take `CC(O)C(=O)O` (stereo not drawn) [Lactate, lactate]: in data set [2], the Michaelis-Menten constant (Km) was found to be 39600 µM, the Kcat is 0.07 s⁻¹ and the Vmax stood at 0.04 nmol⁻¹ µg⁻¹ min⁻¹. Moreover, in data set [3], the Kcat is 0.66 s⁻¹, the Michaelis constant (Km) is 10800 µM and the Vmax is 0.53 nmol⁻¹ µg⁻¹ min⁻¹.
For the compound `NC(=O)c1ccc[n+]([C@@H]2O[C@H](COP(=O)([O-])OP(=O)(O)OC[C@H]3O[C@@H](n4cnc5c(N)ncnc54)[C@H](O)[C@@H]3O)[C@@H](O)[C@H]2O)c1` [NAD^+], in data set [2], the Km came out at 56 µM, the Kcat was determined as 0.11 s⁻¹ and the Vmax worked out at 0.07 nmol⁻¹ µg⁻¹ min⁻¹. In data set [3], the Kcat was 0.70 s⁻¹, the Km was 62 µM and the Vmax is 0.56 nmol⁻¹ µg⁻¹ min⁻¹.
Take `CN(C)C(=S)SSC(=S)N(C)C` [NSC1771]: half-maximal inhibition in [4] (IC50 at 24 h) required 110 µM.
For the compound `Cc1cc2c(C(C)C)c(O)c(O)c(C=O)c2c(O)c1-c1c(C)cc2c(C(C)C)c(O)c(O)c(C=O)c2c1O` [NSC56817], the IC50 at 24 h in data set [4] is 64.2 µM.
For the compound `CC(=O)C(=O)O` [Pyruvate, pyruvate], in data set [2], the “Km for pyruvate lower than that for lactate” value is recorded as “at least 54 fold”, the “Vmax for pyruvate higher than that for lactate” value was determined as 123 fold, the Km is 731 µM and the Kcat stood at 8.42 s⁻¹. In addition, the Vmax in data set [2] worked out at 5.04 nmol⁻¹ µg⁻¹ min⁻¹. In data set [3], the Kcat was 16.10 s⁻¹, the Km is 427 µM and the Vmax is 12.89 nmol⁻¹ µg⁻¹ min⁻¹.
As to `Cc1cc2c(C(C)C)c(O)c(O)c(C=O)c2c(O)c1-c1c(C)cc2c(C(C)C)c(O)c(O)c(C=O)c2c1O` [gossypol], the “enzymatic activity of CpLDH (in words)” value in data set [1] is reported as “able to inhibit”.
As for `NC[C@@H]1O[C@H](O[C@H]2[C@@H](O)[C@H](O[C@@H]3[C@@H](O)[C@H](N)C[C@H](N)[C@H]3O[C@H]3O[C@H](CO)[C@@H](O)[C@H](O)[C@H]3N)O[C@@H]2CO)[C@H](N)[C@@H](O)[C@@H]1O` [paromomycin, reference compound], the 50% inhibitory concentration (IC50) in data set [5] (48 h post-infection) is 450 µM; in data set [5] (72 h post-infection), 400 µM; in [9] it was 711 µM. For the same compound, in [6], the “reduction of shedding of C. parvum in mice feces compared to untreated infected mice” value was “about 3000 fold”. The “reduction of percentage of denuded intestinal villi compared to infected untreated mice” value in data set [7] is recorded as at least 7 fold. Further, the “cytotoxicity in HCT-8 cells” value in [8] is “negligible”.
